Assay [1] has as its target Human DGKα(9-727) (Homo sapiens (Human), UniProt P23743). The experiment in a line: biochemical. The conditions noted are these: liposome (LIPGLO) assay; Table A; read-out: DGKα LIPGLO IC50.
Assay [2] deals with full length human DGKζ (Homo sapiens (Human), UniProt Q13574). The experiment in a line: In vitro DGK inhibition assay, Method B (DGKζ LIPGLO, extruded liposomes). The format is biochemical.
Assay [3] concerns human venous whole blood, CD8 positive population (pERK). The experiment in a line: DGK human whole blood pERK assay. The format is cell-based. To be noted: for EC50: top concentration 20 μM. An outline of the steps:
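Read-out is the pERK-positive fraction of CD8+ cells measured by flow cytometry. Donor venous blood (heparin) saw compound for one hour at 37° C before a 15-minute anti-CD3 challenge (1 μg/mL final) with cross-linking anti-mouse IgG.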

Assay [4] has as its target DGKα (Homo sapiens (Human), UniProt P23743). The experiment in a line: biochemical. Type of assay: biochemical. To be noted: liposome (LIPGLO) assay; read-out: DGKα LIPGLO IC50.
In assay [5] the target is human DGKζ (Homo sapiens (Human), UniProt Q13574). The experiment in a line: biochemical. The format is biochemical. To be noted: liposome (LIPGLO) assay; read-out: DGKζ LIPGLO IC50.
Assay [6] relates to naïve human CD8 T cells. The experiment in a line: CellTiter-Glo CD8 T cell proliferation assay. To be noted: Homo sapiens, read-out: CD8 GLO Normalized EC50. The format is cell-based. As for the experimental part: Assay 4: CellTiter-Glo CD8 T Cell Proliferation Assay
Frozen naïve human CD8 T cells were thawed in RPMI+10% FBS, incubated for 2 h in 37° C., and counted. The 384-well tissue culture plate was coated overnight at 4° C. with 20 μl anti-human CD3 at 0.1 μg/mL in plain RPMI, which was removed off the plate before 20 k/40 μL CD8 T cells with 0.5 μg/ml soluble anti-human CD28 were added to each well. The compounds were echoed to the cell plate immediately after the cells were plated. After 72 h incubation at 37° C. incubator, 10 μL CellTiter-glo reagent (Promega catalog number G7570) was added to each well. The plate was vigorously shaken for 5 mins, incubated at room temperature for another 15 mins and read on Envision for CD8 T cell proliferation. In analysis, 0.1 μg/mL anti-CD3 and 0.5 μg/mL anti-CD28 stimulated CD8 T cell signal was background.
For orientation: In ATP-based viability assays light output follows the ATP content of the culture.

Assay [7] relates to OT-1 CD8+ T cells with SIINFEKL-loaded MC38 tumor cells. The experiment in a line: Murine cytotoxic T lymphocyte assay (IFN-γ). The conditions noted are these: Mus musculus, MC-38; murine cytotoxic T lymphocyte, IFN-γ; read-out: msCTL INFg IC50. The format is cell-based, mouse. The source says: Assay 6: Murine Cytotoxic T Lymphocyte Assay
An antigen-specific cytolytic T-cell (CTL) assay was developed to evaluate functionally the ability of DGKα and DGKζ inhibitors to enhance effector T cell mediated tumor cell killing activity. CD8+ T-cells isolated from the OT-1 transgenic mouse recognize antigen presenting cells, MC38, that present the ovalbumin derived peptide […]. Recognition of the cognate antigen initiates the cytolytic activity of the OT-1 antigen-specific CD8+ T cells.
Functional CTL cells were generated as follows: OT-1 splenocytes from 8-12 week old mice were isolated and expanded in the presence of the […] peptide at 1 μg/mL and mIL2 at 10 U/mL. After three days, fresh media with […] was added. On day 5 of the expansion, the CD8+ T cells were isolated and ready for use. Activated CTL cells may be stored frozen for 6 months. Separately, one million MC38 tumor cells were pulsed with 1 μg/mL of […]-OVA peptide for 3 hours at 37° C. The cells were washed (3×) with fresh media to remove excess peptide. Finally, CTL cells that were pretreated with DGK inhibitors for 1 hour in a 96-well U bottom plate were combined with the antigen loaded MC38 tumor cells at a 1:10 ratio. The cells were then spun at 700 rpm for 5 min and placed in an incubator overnight at 37° C. After 24 hours, the supernatant was collected for analysis of IFN-γ cytokine levels by AlphaLisa purchased from Perkin Elmer.

The test system of assay [8] is Human venous whole blood (IFN-γ). The experiment in a line: Human whole blood IFN-γ assay. The format is cell-based. The conditions noted are these: Homo sapiens, 24 h, human whole blood, anti-CD3 plus anti-CD28, 24 hours; read-out: INFg Whole Blood Normalized Agonist EC50. As for the experimental part:
Assay 10: Human Whole Blood IFN-γ Assay
Human venous whole blood (22.5 μL per well), obtained from healthy donors, was pre-treated with compounds for one hour at 37° C. in a humidified 95% air/5% CO2 incubator. The blood was stimulated with 2.5 μL anti-human CD3 and anti-CD28 mAb at a final concentration of 1 μg/mL each for 24 hours at 37° C. IFN-γ in the supernatants was measured using AlphLISA kit (Cat #AL217).

[9] abbreviates: liposome (LIPGLO) assay, read-out: DGKζ LIPGLO IC50.
The mark [10] stands for this setting: human whole blood, CD8 positive population, anti-CD3 stimulation, read-out: DGK HWB (human whole blood pERK).
Where [11] appears, read: read-out: DGK HWB (human whole blood pERK), human whole blood, CD8 positive population, anti-CD3 stimulation.

Like-named read-outs stand apart in the source and are kept apart here.

Chain of Human DGKα(9-727) (P23743 whole entry, looked up): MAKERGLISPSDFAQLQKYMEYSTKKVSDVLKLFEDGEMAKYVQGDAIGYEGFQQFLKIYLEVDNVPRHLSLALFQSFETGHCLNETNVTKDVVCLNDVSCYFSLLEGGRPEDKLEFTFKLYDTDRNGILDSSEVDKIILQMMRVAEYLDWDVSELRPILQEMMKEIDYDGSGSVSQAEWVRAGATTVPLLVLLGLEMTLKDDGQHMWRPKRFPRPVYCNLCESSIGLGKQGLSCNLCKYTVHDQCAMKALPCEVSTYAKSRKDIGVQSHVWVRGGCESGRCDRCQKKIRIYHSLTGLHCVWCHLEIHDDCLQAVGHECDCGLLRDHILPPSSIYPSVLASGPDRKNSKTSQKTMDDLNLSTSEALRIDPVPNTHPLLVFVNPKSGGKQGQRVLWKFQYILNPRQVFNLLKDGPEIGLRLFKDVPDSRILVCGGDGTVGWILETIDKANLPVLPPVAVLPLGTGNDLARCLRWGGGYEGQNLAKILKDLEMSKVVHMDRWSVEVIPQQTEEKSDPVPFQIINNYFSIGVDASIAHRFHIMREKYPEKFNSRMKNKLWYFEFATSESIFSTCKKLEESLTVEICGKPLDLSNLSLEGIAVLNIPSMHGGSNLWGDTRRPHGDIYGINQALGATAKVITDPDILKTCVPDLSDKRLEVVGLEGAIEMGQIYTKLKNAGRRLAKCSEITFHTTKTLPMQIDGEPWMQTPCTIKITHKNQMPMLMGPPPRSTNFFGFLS
Chain of DGKα (P23743 whole entry, looked up): as above
Chain of full length human DGKζ (Q13574 whole entry, looked up): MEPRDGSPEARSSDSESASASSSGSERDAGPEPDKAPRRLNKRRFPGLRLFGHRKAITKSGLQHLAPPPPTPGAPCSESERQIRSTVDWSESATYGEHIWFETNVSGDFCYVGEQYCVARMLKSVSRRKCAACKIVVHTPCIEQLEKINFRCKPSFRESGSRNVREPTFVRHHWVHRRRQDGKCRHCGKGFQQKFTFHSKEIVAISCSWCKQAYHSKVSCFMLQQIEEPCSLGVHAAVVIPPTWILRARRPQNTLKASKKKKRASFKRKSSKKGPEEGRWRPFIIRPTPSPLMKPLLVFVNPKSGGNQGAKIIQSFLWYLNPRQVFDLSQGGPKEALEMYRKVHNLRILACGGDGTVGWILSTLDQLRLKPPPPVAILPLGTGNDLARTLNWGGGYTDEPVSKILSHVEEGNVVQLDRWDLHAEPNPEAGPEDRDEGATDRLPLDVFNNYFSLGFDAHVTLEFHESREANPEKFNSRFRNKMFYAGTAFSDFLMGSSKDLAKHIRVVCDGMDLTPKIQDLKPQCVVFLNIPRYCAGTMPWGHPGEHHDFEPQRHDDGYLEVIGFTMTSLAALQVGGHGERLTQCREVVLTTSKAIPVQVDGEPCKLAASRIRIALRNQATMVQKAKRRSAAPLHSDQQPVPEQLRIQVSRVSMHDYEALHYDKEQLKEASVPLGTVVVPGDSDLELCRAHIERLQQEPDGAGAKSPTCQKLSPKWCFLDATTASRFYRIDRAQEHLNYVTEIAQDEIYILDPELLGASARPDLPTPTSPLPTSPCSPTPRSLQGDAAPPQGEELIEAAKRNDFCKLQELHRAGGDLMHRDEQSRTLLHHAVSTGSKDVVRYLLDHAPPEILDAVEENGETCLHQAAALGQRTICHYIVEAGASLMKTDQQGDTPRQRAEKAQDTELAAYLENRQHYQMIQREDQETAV
Chain of human DGKζ (Q13574 whole entry, looked up): as above

For orientation: IC50 means the midpoint of a concentration-inhibition curve. As to `CC(C)O[C@@H]1CN(c2cc(=O)n(C)c3ccc(C#N)nc23)CC[C@H]1Oc1cccc(C(F)(F)F)c1` (relative stereo) [Example 395, trans-8-(3-Isopropoxy-4-(3-(trifluoromethyl)phenoxy)piperidin-1-yl)-5-methyl-6-oxo-5,6-dihydro-1,5-naphthyridine-2-carbonitrile], the IC50 in assay [1] was 320 nM; in assay [2] (setting [9]), 69 nM. The EC50 in assay [3] (setting [10]) amounted to 910 nM.
For `CCO[C@H]1CN(c2cc(=O)n(C)c3ccc(C#N)nc23)CC[C@@H]1Oc1ccc(OC(C)C)cn1` (relative stereo) [Example 398, trans-8-(4-((5-Isopropoxypyridin-2-yl)oxy)-3-ethoxypiperidin-1-yl)-5-methyl-6-oxo-5,6-dihydro-1,5-naphthyridine-2-carbonitrile], in assay [2] (setting [9]), the IC50 worked out at 1200 nM. The EC50 in assay [3] (setting [10]) was 2800 nM.
As for `C[C@@H]1CN(c2cc(=O)n(C)c3ccc(C#N)nc23)[C@@H](C)CC1N(C)C(=O)c1ccc(F)cc1` (single isomer, unassigned) [Example 283A], the IC50 in assay [1] is 26000 nM; in assay [2] (setting [9]), 14000 nM.
On to `C[C@@H]1CN(c2cc(=O)n(C)c3ccc(C#N)nc23)[C@@H](C)CC1N(C)C(=O)c1ccc(F)cc1` (single isomer, unassigned) [Example 283B], for which the IC50 in assay [1] and in assay [2] was 42000 nM throughout.
Take `Cn1c(=O)c(C#N)c(N2CCC(Oc3ccc(F)c(F)c3)CC2)c2nc(Cl)ccc21` [Example 12, 6-chloro-4-(4-(3,4-difluorophenoxy)piperidin-1-yl)-1-methyl-2-oxo-1,2-dihydro-1,5-naphthyridine-3-carbonitrile]: the IC50 in assay [4] was determined as 3200 nM; in assay [5], 27000 nM; in assay [7], 3800 nM. Further, the EC50 in assay [6] amounted to 2300 nM; in assay [8], 5000 nM.
On the same counts, the results for `Cn1c(=O)c(C#N)c(N2CCC(Oc3cccc(OC(F)(F)F)c3)CC2)c2nc(Cl)ccc21` [Example 13, 6-chloro-1-methyl-2-oxo-4-(4-(3-(trifluoromethoxy)phenoxy)piperidin-1-yl)-1,2-dihydro-1,5-naphthyridine-3-carbonitrile] are 2000 nM, 240000 nM, 1500 nM, 1200 nM and 5000 nM.
Take `COc1ccc(OC2CCN(c3c(C#N)c(=O)n(C)c4ccc(Cl)nc34)CC2)cc1` [Example 14, 6-chloro-4-(4-(4-methoxyphenoxy)piperidin-1-yl)-1-methyl-2-oxo-1,2-dihydro-1,5-naphthyridine-3-carbonitrile]: the IC50 is 250 nM in assay [4], 13000 nM in assay [5] and 830 nM in assay [7]. The EC50 was found to be 280 nM in assay [6] and 7000 nM in assay [8].
For `Cn1c(=O)c(C#N)c(N2CCC(Oc3ccc(OC(F)(F)F)c(F)c3)CC2)c2nc(Cl)ccc21` [Example 17, 6-chloro-4-(4-(3-fluoro-4-(trifluoromethoxy)phenoxy)piperidin-1-yl)-1-methyl-2-oxo-1,2-dihydro-1,5-naphthyridine-3-carbonitrile] the same measures were 1100 nM, 240000 nM, 1100 nM, 470 nM and 10000 nM.
Turning to `COc1ccc2c(n1)c(N1CCC(Oc3ccc(OC(F)(F)F)cc3)CC1)c(C#N)c(=O)n2C` [Example 48, 6-methoxy-1-methyl-2-oxo-4-(4-(4-(trifluoromethoxy)phenoxy)piperidin-1-yl)-1,2-dihydro-1,5-naphthyridine-3-carbonitrile], the IC50 in assay [4] is 2700 nM; in assay [5], 3400 nM; in assay [7], 270 nM. In addition, the EC50 in assay [6] was 130 nM; in assay [8] it was 6400 nM.
In the case of `Cn1c(=O)c(C#N)c(N2CCC(Oc3ccc(OC(F)(F)F)cc3)CC2)c2nc(C#N)ccc21` [Example 50, 5-methyl-6-oxo-8-(4-(4-(trifluoromethoxy)phenoxy)piperidin-1-yl)-5,6-dihydro-1,5-naphthyridine-2,7-dicarbonitrile], the figures for the IC50 in assay [4], in assay [5] and in assay [7] were 1600 nM, 12000 nM and 990 nM, respectively. The EC50 in assay [6] amounted to 55 nM; in assay [8] it was 5000 nM.
Turning to `Cn1c(=O)c([N+](=O)[O-])c(N2CCC(Oc3ccc(OC(F)(F)F)cc3)CC2)c2nc(C#N)ccc21` [Example 51, 5-methyl-7-nitro-6-oxo-8-(4-(4-(trifluoromethoxy)phenoxy)piperidin-1-yl)-5,6-dihydro-1,5-naphthyridine-2-carbonitrile], the IC50 is 230 nM in assay [4]; 3000 nM in assay [5]; 180 nM in assay [7]; 2500 nM in assay [3] (human whole blood, CD8 positive population, read-out: DGK HWB pERK IC50). Moreover, the EC50 in assay [6] was 140 nM; in assay [8] it was 1700 nM.
Turning to `CCO[C@H]1CN(c2cc(=O)n(C)c3ccc(C#N)nc23)CC[C@@H]1Oc1ccc(OC(C)C)nn1` [Example 376, 8-((3S,4S)-3-ethoxy-4-((6-isopropoxypyridazin-3-yl)oxy)piperidin-1-yl)-5-methyl-6-oxo-5,6-dihydro-1,5-naphthyridine-2-carbonitrile], the IC50 in assay [2] (setting [9]) amounted to 14000 nM. Also, the EC50 in assay [3] (Homo sapiens, CD8 positive, read-out: DGK HWB (human whole blood pERK), human whole blood, CD8 positive population, anti-CD3 stimulation) is 20000 nM.
For `CN(C)CCO[C@@H]1CN(c2cc(=O)n(C)c3ccc(C#N)nc23)CC[C@H]1Oc1cccc(C(F)(F)F)c1` [Example 385, 8-((3R,4R)-3-(2-(dimethylamino)ethoxy)-4-(3-(trifluoromethyl)phenoxy)piperidin-1-yl)-5-methyl-6-oxo-5,6-dihydro-1,5-naphthyridine-2-carbonitrile], the IC50 stood at 100000 nM in assay [1] and 130000 nM in assay [2] (setting [9]).
Take `COCCO[C@@H]1CN(c2cc(=O)n(C)c3ccc(C#N)nc23)CC[C@H]1Oc1cccc(C(F)(F)F)c1` [Example 390, 8-((3R,4R)-3-(2-methoxyethoxy)-4-(3-(trifluoromethyl)phenoxy)piperidin-1-yl)-5-methyl-6-oxo-5,6-dihydro-1,5-naphthyridine-2-carbonitrile]: the IC50 in assay [2] (setting [9]) was 1900 nM. The EC50 in assay [3] (setting [11]) stood at 20000 nM.
As to `Cn1c(=O)cc(N2CC[C@@H](Oc3cccc(C(F)(F)F)c3)[C@H](OCC(F)(F)F)C2)c2nc(C#N)ccc21` [Example 394, 5-methyl-6-oxo-8-((3R,4R)-3-(2,2,2-trifluoroethoxy)-4-(3-(trifluoromethyl)phenoxy)piperidin-1-yl)-5,6-dihydro-1,5-naphthyridine-2-carbonitrile], in assay [2] (setting [9]), the IC50 turned out to be 51000 nM. Moreover, the EC50 in assay [3] (setting [11]) was determined as 6200 nM.
`CCO[C@H]1CN(c2nc(=O)n(C)c3ccc(C#N)nc23)CC[C@@H]1Oc1ccc(C(F)(F)F)cc1` [Example 405, 4-((3S,4S)-3-ethoxy-4-(4-(trifluoromethyl)phenoxy)piperidin-1-yl)-1-methyl-2-oxo-1,2-dihydropyrido[3,2-d]pyrimidine-6-carbonitrile]: the IC50 in assay [2] (setting [9]) came to 14000 nM.

The values above are taken from US11964973B2 (priority 2019, dated 2024).
